Data on 4 molecules can be found in US6777004B1, “Composition containing novel compound corniculatonin having antifungi properties and a process for preparing the same” (Council of Scientific & Industrial Research, priority 2001, dated 2004).

Assay [1] deals with Cladosporium cucumerinum. The conditions noted are these: plant pathogenic fungus Cladosporium cucumerinum; cited from earlier work.
Assay [2] relates to Candida sp. Nature of the assay: Minimum Inhibitory Concentration (MIC), disk diffusion method. It is filed as cell-based. The conditions noted are these: 3.12-50 μg per disk tested, 42-120 hrs at room temperature. From the text: (§1) Agar: Czapek Malt Agar (Himedia laboratories Ltd.) was used for culturing Microsporumn gypseum, Trichophyton mentagrophytes T. tonsurans, T. violaceum, Aspergillus fresenii and A. niger. Mycological Agar (Himedia Laboratories Ltd) was used for Cryptococcus neoformans and Candida sp.
(§2) Pathogenic fungal strains of yeast and filamentous fungi identified and gifted by Dr. Savio from Goa Medical College, Bambolim, were used for the test. Strains of Aspergillus were isolated from the infected wheat bread with sterile needle; fungal material was surface sterilized using 0.5% sodium hypochlorite for 2-3 minutes, and then washed with small brush in sterile distilled water. Washed fungal material was transferred using needle into the sterile culture media and subcultured for purification by following standard methods (Collins and Taylor, 1967). Taxonomic identification was done by using various standard keys (Ainswort et al., 1973; Onion et al., 1981) and identification confirmed by Alka Pandey of Agarkar Research Institute, Pune.
(§3) Innocula were adjusted to 100 μl of Cryptococcus neoformans, Candida sp., Microsporum gypseum, Trichophyton tonsurans, T. violaceum and Trichophyton mentagrophytes and spread on the appropriate plates, excess moisture was allowed to absorb for 10 minutes before applying disks. Immediately prior to the assay, the testing compound of formula 1, object of the present invention, the reference compounds amphotericin B and nystatin, potency approx:750 μ/mg and 480 USP unit/mg respectively, were reconstituted in triplicate in dimethylsulfoxide. […] From the stock solution 10 μl were spread on the paper disk so as to obtain final concentration of 50 μg disc^−1, 25 μg disc^−1, 12.5 μg disc^−1, 6.25 μg disc^−1 and 3.12 μg disk^−1. Disks were dried at reduced pressure in the dessicator, at 28-29° C. and applied to innoculated plates.
(§4) In testing, the compound of formula 1 was reconstituted in dimethylsulfoxide (DMSO) immediately prior to all assays. Dimethylsulfoxide (DMSO) alone had no detectable inhibitory effect on any of the tested microbes. Compound of formula 1 was tested against a diverse collection of yeast and filamentous fungi, some of which are resistant to the reference compound nystatin. Filamentous fungi were nystatin resistant.

For assay [3], the system named is Cryptococcus neoformans. The description is as above. The class given is cell-based. The conditions noted are these: 3.12-50 μg per disk tested, 42-120 hrs at room temperature.
Source text: as §1, §2, §3, §4

Assay [4] relates to strains of yeast and filamentous fungi. The assay can be described thus: In vitro antifungal activity, disk diffusion, whole panel (summary in words). The class given is cell-based. The conditions noted are these: for antifungal activity in words: all the strains of yeast and filamentous fungi tested. Here is the method:
as §3, §4
On the technique in general: Agar diffusion results depend on both activity and mobility in agar.

Assay [5] has as its system Aspergillus niger. The assay can be described thus: Minimum Inhibitory Concentration (MIC), disk diffusion method. It is filed as cell-based. The conditions noted are these: 3.12-50 μg per disk tested, 42-120 hrs at room temperature.
Source text: as §1, §2, §3, §4

Assay [6] deals with T. violaceum. Described as above. The class given is cell-based. The conditions noted are these: 3.12-50 μg per disk tested, 42-120 hrs at room temperature.
Source text: as §1, §2, §3, §4

The subject of assay [7] is Microsporum gypseum. The description is as above. The class given is cell-based. The conditions noted are these: 3.12-50 μg per disk tested, 42-120 hrs at room temperature.
Source text: as §1, §2, §3, §4

For assay [8], the system named is Trichophyton mentagrophytes. The assay is described as above. It is filed as cell-based. To be noted: 3.12-50 μg per disk tested, 42-120 hrs at room temperature.
Source text: as §1, §2, §3, §4

The test system of assay [9] is Aspergillus fresenii. The description is as above. The conditions noted are these: 3.12-50 μg per disk tested, 42-120 hrs at room temperature. It is filed as cell-based.
Source text: as §1, §2, §3, §4

For assay [10], the system named is T. tonsurans. Described as above. It is filed as cell-based, Trichophyton tonsurans. The conditions noted are these: 3.12-50 μg per disk tested, 42-120 hrs at room temperature.
Source text: as §1, §2
Innocula were adjusted to 100 μl of Cryptococcus neoformans, Candida sp., Microsporum gypseum, Trichophyton tonsurans, T. violaceum and Trichophyton mentagrophytes and spread on the appropriate plates, excess moisture was allowed to absorb for 10 minutes before applying disks. […]

Assay [11] relates to Aspergillus niger. Nature of the assay: Disk diffusion assay, zone of inhibition. The conditions noted are these: 250 μg. disk^−1; incubated at room temperature 42-120 hrs. The class given is cell-based.
Source text: as §1, §2
(§5) Disk diffusion assay: The disk diffusion assay was used for screening of antifungal activity of the compound. The stock solution for the test was prepared by dissolving 5 mg of the compound of formula 1 in 200 μl dimethylsulfoxide (DMSO). From the stock solution 10 μl were spread on the paper disc so as to obtain the final concentration of 250 μg disk^−1 Control disk was applied reconstituted with only dimethylsulphoxide and were dried at 28-29° C. Completely dried disk was applied to innoculated plates. The plates were incubated at room temperature for the period between 42-120 hrs. to obtain maximum growth in the culture media. The zones of inhibition around the disks were measured.

Assay [12] has as its system T. violaceum. The assay can be described thus: Disk diffusion assay, zone of inhibition. It is filed as cell-based. To be noted: 250 μg. disk^−1; incubated at room temperature 42-120 hrs.
Source text: as §1, §2, §5

The test system of assay [13] is Candida sp. The assay can be described thus: Disk diffusion assay, zone of inhibition. The class given is cell-based. To be noted: 250 μg. disk^−1; incubated at room temperature 42-120 hrs.
Source text: as §1, §2, §5

For assay [14], the system named is Microsporum gypseum. Nature of the assay: Disk diffusion assay, zone of inhibition. It is filed as cell-based. To be noted: 250 μg. disk^−1; incubated at room temperature 42-120 hrs.
Source text: as §1, §2, §5

For assay [15], the system named is Cryptococcus neoformans. The assay can be described thus: Disk diffusion assay, zone of inhibition. The conditions noted are these: 250 μg. disk^−1; incubated at room temperature 42-120 hrs. It is filed as cell-based.
Source text: as §1, §2, §5

Assay [16] concerns Trichophyton mentagrophytes. Nature of the assay: Disk diffusion assay, zone of inhibition. The class given is cell-based. To be noted: 250 μg. disk^−1; incubated at room temperature 42-120 hrs.
Source text: as §1, §2, §5

The subject of assay [17] is Aspergillus fresenii. Nature of the assay: Disk diffusion assay, zone of inhibition. The conditions noted are these: 250 μg. disk^−1; incubated at room temperature 42-120 hrs. It is filed as cell-based.
Source text: as §1, §2, §5

The subject of assay [18] is T. tonsurans. The assay can be described thus: Disk diffusion assay, zone of inhibition. The class given is cell-based, Trichophyton tonsurans. The conditions noted are these: 250 μg. disk^−1; incubated at room temperature 42-120 hrs.
Source text: as §1, §2
Disk diffusion assay: The disk diffusion assay was used for screening of antifungal activity of the compound. The stock solution for the test was prepared by dissolving 5 mg of the compound of formula 1 in 200 μl dimethylsulfoxide (DMSO). […] The zones of inhibition around the disks were measured.

As to Sakurasaponin, the “antifungal amount in TLC bioassay” value in assay [1] was 1 µg.
For `C[C@@H]1[C@H](O)[C@@H](C)/C=C/C=C/CC/C=C/C=C/C=C/C=C/C(O[C@H]2O[C@H](C)[C@@H](O)[C@H](N)[C@@H]2O)CC2O[C@](O)(CC(O)C(O)CCC(O)CC(O)CC(O)CC(=O)O[C@H]1C)CC(O)C2C(=O)O` (some centres unmarked) [Nystatin], the MIC in assay [2] and in assay [3] was 6.25-12.5 μg. disk^−1 throughout. Moreover, the “sensitivity of filamentous fungi in words” value in assay [4] (filamentous fungi) is on record as “resistant”.
Turning to `C[C@@H]1[C@H](O)[C@@H](C)/C=C/C=C/C=C/C=C/C=C/C=C/C=C/[C@H](O[C@@H]2O[C@H](C)[C@@H](O)[C@H](N)[C@@H]2O)C[C@@H]2O[C@](O)(C[C@@H](O)C[C@@H](O)[C@H](O)CC[C@@H](O)C[C@@H](O)CC(=O)O[C@H]1C)C[C@H](O)[C@H]2C(=O)O` [Amphotericin B, reference compound], the MIC in assay [5] was 12.5-25 μg. disk^−1; in assay [6] it was 6.25-12.5 μg. disk^−1; in assay [2] it was 3.12-6.25 μg. disk^−1; in assay [7], 6.25-12.5 μg. disk^−1; in [3], 3.12-6.25 μg. disk^−1; in [8], 6.25-12.5 μg. disk^−1. Moreover, the MIC is reported as 12.5-25 μg. disk^−1 in [9] and 6.25-12.5 μg. disk^−1 in [10]. For the same molecule, in assay [4], the “antifungal activity in words” value is listed as “sensitive”.
Take “3-O-α-rhamnopyranosyl-rhamnopyranosyl-glucopyranosyl-glucoronopyranosylgluco-pyrano side 16 α-hydroxy-13,28-epoxy oleanane [Compound 1]”: the MIC was 25-50 μg. disk^−1 in assay [6]; 6.25-12.5 μg. disk^−1 in assay [2]; 12.5-25 μg. disk^−1 in assay [7]; 6.25-12.5 μg. disk^−1 in [3]; 25-50 μg. disk^−1 in assay [8]; 25-50 μg. disk^−1 in assay [9]. Also, in assay [10], the MIC is on record as 12.5-25 μg. disk^−1. The “antifungal activity in words” value in assay [4] was “fungicidal against all the strains of yeast and filamentous fungi tested except Aspergillus niger”. Further, the “Disk Diffusion Method, zone of inhibition” value is 4 mm in assay [11]; 13 mm in assay [12]; 9 mm in assay [13]; 14 mm in assay [14]; 9 mm in [15]; 12 mm in assay [16]. The entries for the “Disk Diffusion Method, zone of inhibition” value in assay [17] and in assay [18] were 10 mm and 14 mm, respectively.
